According to patent US20060263802A1 (priority 2003, published 2006):

Key:
Format in all cases: binding
[1] = system: human monoclonal antibody CRJB
[2] = system: human monoclonal antibody CR57
[3] = system: human monoclonal antibody CRJA
[4] = system: human monoclonal antibody CRJB; remark: listed apart in the source
[5] = system: human monoclonal antibody CR57; remark: listed apart in the source
[6] = system: human monoclonal antibody CRJA; remark: listed apart in the source

Sequence | Binding of CRJB to linear peptide (PEPSCAN-ELISA signal) [1] | Binding of CR57 to linear peptide (PEPSCAN-ELISA signal) [2] | Binding of CRJA to linear peptide (PEPSCAN-ELISA signal) [3] | Binding of CRJB (10 μg/ml) to looped/cyclic peptide (PEPSCAN-ELISA) [4] | Binding of CR57 (10 μg/ml) to looped/cyclic peptide (PEPSCAN-ELISA) [5] | Binding of CRJA (10 μg/ml) to looped/cyclic peptide (PEPSCAN-ELISA) [6] | Binding of CRJB (10 μg/ml) to looped/cyclic peptide (PEPSCAN-ELISA signal) [4] | Binding of CR57 (10 μg/ml) to looped/cyclic peptide (PEPSCAN-ELISA signal) [5] | Binding of CRJA (10 μg/ml) to looped/cyclic peptide (PEPSCAN-ELISA signal) [6] | Binding of human monoclonal antibody CRJB to linear peptide (PEPSCAN-ELISA signal) [1] | Binding of human monoclonal antibody CR57 to linear peptide (PEPSCAN-ELISA signal) [2] | Binding of human monoclonal antibody CRJA to linear peptide (PEPSCAN-ELISA signal) [3] | Binding of CRJB to looped/cyclic peptide (PEPSCAN-ELISA signal) [4] | Binding of CR57 to looped/cyclic peptide (PEPSCAN-ELISA signal) [5] | Binding of CRJA to looped/cyclic peptide (PEPSCAN-ELISA signal) [6]
CLDALESIMTTKSVS | 146 | 101 | 106 | 90 | 111 | 123 | – | – | – | – | – | – | – | – | –
VGYVTTTFKRKHFRP | 113 | 75 | 80 | – | – | – | 85 | 117 | 100 | – | – | – | – | – | –
VAMQTSNETKWCPPD | 104 | 86 | 97 | 66 | 45 | 90 | – | – | – | – | – | – | – | – | –
HLPDVHNQVSGVDLG | – | – | – | – | – | – | – | – | – | 150 | 104 | 96 | 93 | 119 | 87
MQTSNETKWCPPDQL | 132 | 104 | 112 | 33 | 138 | 74 | – | – | – | – | – | – | – | – | –
KMAGDPRYEESLHNP | 102 | 62 | 48 | – | – | – | 45 | 49 | 38 | – | – | – | – | – | –
GDEAEDFVEVHLPDV | – | – | – | – | – | – | – | – | – | 124 | 46 | 93 | 87 | 87 | 82
ETCGFVDERGLYKSL | 120 | 64 | 85 | 78 | 90 | 75 | – | – | – | – | – | – | – | – | –
QQHMELLESSVIPLV | 134 | 103 | 100 | 92 | 141 | 94 | – | – | – | – | – | – | – | – | –
PDACRAAYNWKMAGD | 124 | 61 | 93 | – | – | – | 76 | 97 | 96 | – | – | – | – | – | –
CHPHVNGVFFNGIIL | 150 | 97 | 94 | 101 | 113 | 105 | – | – | – | – | – | – | – | – | –
DIHHLSCPNNLVVED | 96 | 38 | 61 | – | – | – | 48 | 52 | 62 | – | – | – | – | – | –
AVSSTYCSTNHDYTI | 105 | 71 | 102 | – | – | – | 79 | 129 | 91 | – | – | – | – | – | –
IISPSVADLDPYDRS | 125 | 83 | 98 | – | – | – | 93 | 115 | 106 | – | – | – | – | – | –
HHLSCPNNLVVEDEG | 76 | 56 | 72 | – | – | – | 58 | 66 | 96 | – | – | – | – | – | –
IFNKTLMEADAHYKS | 118 | 100 | 87 | 86 | 107 | 98 | – | – | – | – | – | – | – | – | –
LPDVHNQVSGVDLGL | – | – | – | – | – | – | – | – | – | 154 | 104 | 97 | 118 | 116 | 98
IFTNSRGKRASKGSE | 125 | 77 | 97 | – | – | – | 75 | 85 | 88 | – | – | – | – | – | –
GFSYMELKVGYILAI | 111 | 65 | 91 | – | – | – | 57 | 77 | 71 | – | – | – | – | – | –
NGFTCTGVVTEAENY | 101 | 69 | 98 | – | – | – | 76 | 92 | 82 | – | – | – | – | – | –
NKTLMEADAHYKSVR | 116 | 104 | 94 | 97 | 120 | 98 | – | – | – | – | – | – | – | – | –
MQSSLLQQHMELLES | 113 | 65 | 113 | 90 | 72 | 99 | – | – | – | – | – | – | – | – | –
